Measurements from PubChem BioAssay AID214 (DTP/NCI, 2004).
“And” between values parts separate entries of the source, which are not always exact repeats. Equal entries are not always repeated. Inconclusive results are not listed.

System: B6C3F1 mice, colon carcinoma 38 s.c., T/C
Assay: NCI In Vivo Anticancer Drug Screen. Data for tumor model Colon Carcinoma 38 (subcutaneous) in B6C3F1 mice
Settings: endpoint: median tumor weight (est.), higher = larger tumour
Experimental: The antitumor activity of compounds was measured in mice bearing transplantable tumors. Survival or tumor size were measured and the results are expressed as the measurement made in the treated group (T) divided by the measurement made in the vehicle treated control group (C). The tumor model used in this assay is Colon Carcinoma 38 (subcutaneous) in B6C3F1 mice

[1] = dose: 12.5 mg/kg/injection, schedule: Q07DX002 (ip), vehicle: saline
[2] = dose: 25.0 mg/kg/injection, schedule: Q07DX002 (ip), vehicle: saline
[3] = dose: 50.0 mg/kg/injection, schedule: Q07DX002 (ip), vehicle: saline
[4] = dose: 400.0 mg/kg/injection, schedule: Q07DX002 (ip), vehicle: Klucel (hydroxypropylcellulose) (HPC)
[5] = dose: 100.0 mg/kg/injection, schedule: Q07DX002 (ip), vehicle: Klucel (hydroxypropylcellulose) (HPC)
[6] = dose: 200.0 mg/kg/injection, schedule: Q07DX002 (ip), vehicle: Klucel (hydroxypropylcellulose) (HPC)
[7] = dose: 100.0 mg/kg/injection, schedule: Q07DX002 (ip), vehicle: water
[8] = dose: 100.0 mg/kg/injection, schedule: Q07DX002 (ip), vehicle: saline
[9] = dose: 25.0 mg/kg/injection, schedule: Q07DX002 (ip), vehicle: saline with Tween-80
[10] = dose: 50.0 mg/kg/injection, schedule: Q07DX002 (ip), vehicle: saline with Tween-80
[11] = dose: 100.0 mg/kg/injection, schedule: Q07DX002 (ip), vehicle: saline with Tween-80
[12] = dose: 400.0 mg/kg/injection, schedule: Q07DX002 (ip), vehicle: saline

SMILES: O=c1n(CC2CO2)c(=O)n(CC2CO2)n1CC1CO1 (stereo unspecified)
- T/C (dose: 6.25 mg/kg/injection, schedule: Q07DX002 (ip), vehicle: saline): 72 % of control
- T/C [1]: 67 % of control
- T/C [2]: 87 % of control
- T/C [3]: 31 % of control

SMILES: CC[C@H](CC[C@@H](C)C1CC[C@H]2[C@@H]3CC=C4C[C@@H](OP(=O)(N5CC5)N5CC5)CC[C@]4(C)[C@H]3CC[C@]12C)C(C)C (stereo partly specified)
- T/C (dose: 225.0 mg/kg/injection, schedule: Q07DX002 (ip), vehicle: saline with Tween-80): 246 % of control
- T/C (dose: 450.0 mg/kg/injection, schedule: Q07DX002 (ip), vehicle: saline with Tween-80): 205 % of control
- T/C (dose: 900.0 mg/kg/injection, schedule: Q07DX002 (ip), vehicle: saline with Tween-80): 115 % of control

SMILES: NC(CSC(c1ccccc1)(c1ccccc1)c1ccccc1)C(=O)O (stereo unspecified)
- T/C (dose: 32.0 mg/kg/injection, schedule: Q07DX002 (ip), vehicle: saline with Tween-80): 87 % of control
- T/C (dose: 32.0 mg/kg/injection, schedule: Q07DX003 (ip), vehicle: saline with Tween-80): 46 % of control
- T/C (dose: 64.0 mg/kg/injection, schedule: Q07DX002 (ip), vehicle: saline with Tween-80): 81 % of control
- T/C (dose: 64.0 mg/kg/injection, schedule: Q07DX003 (ip), vehicle: saline with Tween-80): 105 % of control
- T/C (dose: 128.0 mg/kg/injection, schedule: Q07DX002 (ip), vehicle: saline with Tween-80): 63 % of control
- T/C (dose: 128.0 mg/kg/injection, schedule: Q07DX003 (ip), vehicle: saline with Tween-80): 72 % of control
- T/C (dose: 256.0 mg/kg/injection, schedule: Q07DX002 (ip), vehicle: saline with Tween-80): 30 % of control
- T/C (dose: 256.0 mg/kg/injection, schedule: Q07DX003 (ip), vehicle: saline with Tween-80): 45 % of control
- T/C (dose: 512.0 mg/kg/injection, schedule: Q07DX002 (ip), vehicle: saline with Tween-80): 2 % of control

SMILES: CC1(C)OCC2OC=CC(=O)C2O1 (stereo unspecified)
- T/C (dose: 200.0 mg/kg/injection, schedule: Q07DX002 (ip), vehicle: saline with Tween-80): 222 % of control

SMILES: Cc1cc(=O)c2cccc(CC(=O)O)c2o1
- T/C [4]: 117 % of control

SMILES: CN(C)c1ccc2c(SCC(=O)OCC(=O)[C@@]3(O)CC[C@H]4[C@@H]5CCC6=CC(=O)C=C[C@]6(C)[C@H]5C(=O)C[C@@]43C)c3ccc(N(C)C)cc3nc2c1
- T/C (dose: 50.0 mg/kg/injection, schedule: Q07DX002 (ip), vehicle: Klucel (hydroxypropylcellulose) (HPC)): 105 % of control
- T/C [5]: 78 % of control
- T/C [6]: 81 % of control
- T/C [4]: 82 % of control
- T/C (dose: 800.0 mg/kg/injection, schedule: Q07DX002 (ip), vehicle: Klucel (hydroxypropylcellulose) (HPC)): 16 % of control

SMILES: CSc1ncnc2c1ncn2C1OC(CO)C(O)C1O (stereo unspecified)
- T/C (dose: 25.0 mg/kg/injection, schedule: Q07DX002 (ip), vehicle: saline + alcohol): 98 % of control
- T/C (dose: 50.0 mg/kg/injection, schedule: Q07DX002 (ip), vehicle: saline + alcohol): 51 % of control
- T/C (dose: 100.0 mg/kg/injection, schedule: Q07DX002 (ip), vehicle: saline + alcohol): 49 % of control
- T/C (dose: 200.0 mg/kg/injection, schedule: Q07DX002 (ip), vehicle: saline + alcohol): 32 % of control

SMILES: CCCCCC(O)C1C(=O)OC(C)C(O)/C=C/C=C/C=C/C=C\C=C(\C)C(O)CC(O)CC(O)CC(O)CC(O)CC(O)CC1O (stereo unspecified)
- T/C (dose: 6.25 mg/kg/injection, schedule: Q07DX002 (ip), vehicle: water): 81 % of control
- T/C (dose: 12.5 mg/kg/injection, schedule: Q07DX002 (ip), vehicle: water): 103 % of control
- T/C (dose: 25.0 mg/kg/injection, schedule: Q07DX002 (ip), vehicle: water): 77 % of control
- T/C (dose: 50.0 mg/kg/injection, schedule: Q07DX002 (ip), vehicle: water): 69 % of control
- T/C [7]: 62 % of control

SMILES: CSc1ncc2ncn(C3OC(CO)C(O)C3O)c2n1 (stereo unspecified)
- T/C [5]: 120 % of control
- T/C [6]: 78 % of control
- T/C [4]: 120 % of control

SMILES: C#CCNC1=C(C)C(=O)C2=C(C1=O)[C@H](COC(N)=O)[C@]1(OC)[C@@H]3N[C@@H]3CN21
- T/C (dose: 1.5 mg/kg/injection, schedule: Q07DX002 (ip), vehicle: distilled water + Tween-80): 50 % of control
- T/C (dose: 3.0 mg/kg/injection, schedule: Q07DX002 (ip), vehicle: distilled water + Tween-80): 60 % of control
- T/C (dose: 6.0 mg/kg/injection, schedule: Q07DX002 (ip), vehicle: distilled water + Tween-80): 36 % of control
- T/C (dose: 12.0 mg/kg/injection, schedule: Q07DX002 (ip), vehicle: distilled water + Tween-80): 9 % of control

SMILES: O=C(O)C(O)C(O)C1[O][Sb][O]C1C(=O)O (stereo unspecified)
- T/C [1]: 76 % of control
- T/C [2]: 84 % of control
- T/C [3]: 123 % of control
- T/C [8]: 107 % of control

SMILES: Nc1ncn(C2OC(CO)C(O)C2O)c(=O)n1 (stereo unspecified)
- T/C (dose: 4.0 mg/kg/injection, schedule: Q07DX002 (ip), vehicle: saline): 60 % of control
- T/C (dose: 8.0 mg/kg/injection, schedule: Q07DX002 (ip), vehicle: saline): 82 % of control
- T/C (dose: 16.0 mg/kg/injection, schedule: Q07DX002 (ip), vehicle: saline): 33 % of control
- T/C (dose: 32.0 mg/kg/injection, schedule: Q07DX002 (ip), vehicle: saline): 6 % of control
- T/C (dose: 64.0 mg/kg/injection, schedule: Q07DX002 (ip), vehicle: saline): 2 % of control

SMILES: CCCCCC1c2cc(O)ccc2OC1N1CCOCC1 (stereo unspecified)
- T/C [9]: 103 % of control
- T/C [10]: 74 % of control
- T/C [11]: 92 % of control
- T/C (dose: 400.0 mg/kg/injection, schedule: Q07DX002 (ip), vehicle: saline with Tween-80): 81 % of control

SMILES: OCC1OC(n2cnc3c(=S)nc[nH]c32)C(O)C1O (stereo unspecified)
- T/C (dose: 250.0 mg/kg/injection, schedule: Q07DX002 (ip), vehicle: suspension in saline): 74 % of control
- T/C (dose: 500.0 mg/kg/injection, schedule: Q07DX002 (ip), vehicle: suspension in saline): 31 % of control
- T/C (dose: 1000.0 mg/kg/injection, schedule: Q07DX002 (ip), vehicle: suspension in saline): 41 % of control

SMILES: BrCCC1(CCBr)CCCCC1
- T/C [7]: 112 % of control
- T/C (dose: 200.0 mg/kg/injection, schedule: Q07DX002 (ip), vehicle: water): 177 % of control
- T/C (dose: 400.0 mg/kg/injection, schedule: Q07DX002 (ip), vehicle: water): 95 % of control
- T/C (dose: 800.0 mg/kg/injection, schedule: Q07DX002 (ip), vehicle: water): 117 % of control
- T/C (dose: 1600.0 mg/kg/injection, schedule: Q07DX002 (ip), vehicle: water): 90 % of control

SMILES: O=C(O)Cc1cccc2c(=O)cc(C3CCCCC3)oc12
- T/C [8]: 90 % of control
- T/C [12]: 82 % of control

SMILES: CCCCCCCCCCCCCCCCCC(=O)Nc1ccn(C2OC(CO)C(O)C2O)c(=O)n1 (stereo unspecified)
- T/C (dose: 12.5 mg/kg/injection, schedule: Q07DX002 (ip), vehicle: saline with Tween-80): 64 % of control
- T/C [9]: 40 % of control
- T/C [10]: 49 % of control
- T/C [11]: 23 % of control

SMILES: COc1ccc2cc1Oc1ccc(cc1)C[C@H]1c3cc(c(OC)cc3CCN1C)Oc1c(OC)c(OC)cc3c1[C@H](C2)N(C)CC3
- T/C (dose: 150.0 mg/kg/injection, schedule: Q07DX002 (ip), vehicle: saline with Tween-80): 102 % of control and 106 % of control
- T/C (dose: 300.0 mg/kg/injection, schedule: Q07DX002 (ip), vehicle: saline with Tween-80): 57 % of control
- T/C (dose: 600.0 mg/kg/injection, schedule: Q07DX002 (ip), vehicle: saline with Tween-80): 29 % of control

SMILES: Cc1ccc2nc(-c3ccc4nc(-c5ccc(N=Nc6ccc(-c7nc8ccc(-c9nc%10ccc(C)c(S(=O)(=O)O)c%10s9)cc8s7)cc6)cc5)sc4c3)sc2c1S(=O)(=O)O
- T/C [3]: 72 % of control
- T/C [8]: 101 % of control
- T/C (dose: 200.0 mg/kg/injection, schedule: Q07DX002 (ip), vehicle: saline): 84 % of control
- T/C [12]: 82 % of control

SMILES: N=C(N)CCCCCCCCC(=N)N
- T/C (dose: 6.25 mg/kg/injection, schedule: Q07DX002 (ip), vehicle: Klucel (hydroxypropylcellulose) (HPC)): 169 % of control
- T/C (dose: 12.5 mg/kg/injection, schedule: Q07DX002 (ip), vehicle: Klucel (hydroxypropylcellulose) (HPC)): 109 % of control
- T/C (dose: 25.0 mg/kg/injection, schedule: Q07DX002 (ip), vehicle: Klucel (hydroxypropylcellulose) (HPC)): 109 % of control
